Results as given in patent US20070116782A1, “USE OF RARE EARTH COMPOUNDS FOR THE PREVENTION OF KIDNEY STONE DISEASE” (SHIRE INT[…] B.V., priority 2001, published 2007).
Where two headings read alike, the source gives them in different places.

Tests used:
[1] = Protocol: (§1) In order to assess removal of oxalate from a stock solution by lanthanum carbonate, an oxalate binding assay was developed. […] Further, the buffer conditions were designed to mimic the conditions present in the stomach and in the small intestine. Briefly, 50 mL of a stock sodium oxalate solution containing 8.5 g/L sodium chloride was adjusted to the desired pH using 5N HCl and the Mettler-Toledo DL58 autotitrator. Various combinations of oxalate and lanthanum carbonate concentrations were tested to determine which would maximize oxalate removal. Prior to the addition of the desired amount of lanthanum carbonate, a 2 mL sample was taken to act as a zero time point sample. The volume of buffer was made up to 50 mL again by adding 2 mL of stock oxalate buffer back to the pH adjusted buffer and the lanthanum carbonate was added. […] In addition, samples were assayed at 590 nm in a Falcon 96-well microplate using the Molecular Devices Spectramax 190 plate reader.
In order to maximize the accuracy of the results, the filtered samples were assayed at a 1/20 dilution.
The procedure described above was repeated at various pH's in the range of 3-7.

[2] = Oxalate binding assay of Example 1 with pH maintained with 1N NaOH (chlorides, acetates); details: pH 7, pH maintained with 1N NaOH
Protocol: as §1

[3] = 0.1 M compound; 0.1 M phosphate, 0.01 M oxalate; pH 3 gradually increased to pH 7
[4] = 0.1 M compound, 0.01 M oxalate, 0.1 M phosphate (10-fold excess)
Protocol: In addition, samples were assayed at 590 nm in a Falcon 96-well microplate using the Molecular Devices Spectramax 190 plate reader.

[5] = pH 7, 0.1 M compound, 0.01 M sodium oxalate, 8.5 g/L sodium chloride

## O=C([O-])[O-].O=C([O-])[O-].O=C([O-])[O-].[Ce+3].[Ce+3] [cerium carbonate]
[1]; pH 3 (compared with pH 7), 0.1 M compound
  oxalate binding: less effective
[1]; pH 7, 0.1 M compound
  oxalate binding compared with 0.1 M lanthanum carbonate: as effective as 0.1 M lanthanum carbonate

## [Cl][La]([Cl])[Cl] [lanthanum chloride]
[2]
  oxalate binding: binds oxalate quite rapidly

## O=C([O-])[O-].O=C([O-])[O-].O=C([O-])[O-].[La+3].[La+3] [lanthanum carbonate]
[3]
  oxalate binding in the presence of excess phosphate during pH transition: can successfully bind oxalate

## O.O.O.O.O=C([O-])[O-].O=C([O-])[O-].O=C([O-])[O-].[La+3].[La+3] [lanthanum carbonate tetrahydrate]
[1]; [5]
  oxalate binding: can effectively bind oxalate
[1]; pH range 3-7
  oxalate binding at various pH: can bind oxalate in this pH range (3-7) with preferential binding at pH 6-7

## O.O.O.O.O.O=C([O-])[O-].O=C([O-])[O-].O=C([O-])[O-].[La+3].[La+3] [lanthanum carbonate pentahydrate]
[1]; [5]
  oxalate binding: can effectively bind oxalate
[4]; pH 3.0
  competitive binding of oxalate vs phosphate: Preferential binding of phosphate
[4]; pH 7.0
  competitive binding of oxalate vs phosphate: preferentially bind oxalate over phosphate
